Measured values reported in US12194022B2, “Use of amisulpride as an anti-emetic” (ACACIA PHARMA LIMITED, priority 2010, dated 2025).
Entries after “also recorded” stand apart in the source; their conditions may differ.

Experiments:
[1] = UKPAR Special Warnings and Precautions for Use; cited from earlier work
[2] = system: dog; settings: cited from earlier work
[3] = system: patients undergoing routine surgery; test: Phase IIa study of prophylaxis of post-operative nausea and vomiting; assay type: in vivo, human; settings: single dose at the time of the operation; 24-hour period post-operation
Experimental: A formulation of the invention was prepared, suitable for intravenous administration. It is a 2.5 mg/ml citrate-buffered solution (nominal pH 5.0) of amisulpride. The composition is given below.
The effects of amisulpride are studied in patients undergoing routine surgery in a randomised, controlled, open-label phase IIa study of efficacy of a single dose as prophylaxis of post-operative nausea and vomiting. The primary endpoint is the incidence of nausea and vomiting in the 24-hour period post-operation. The drug is administered at the time of the operation. The secondary endpoints are the nausea and vomiting rates and severity (measured separately) over 0-2 hours, 2-6 hours and 6-24 hours post-operation. In addition, the use of rescue medication and safety/adverse events, are recorded.

[4] = system: ferrets; test: Morphine-induced emesis in ferrets; assay type: in vivo, ferret
Experimental: (§1) The method used to test antiemetic activity preclinically follows that described by Gardner et al. (Brit. J. Pharmacol., 116: 3158-3163, 1995) and uses ferrets.
(§2) Sixty minutes before administration of the test substance, ferrets are placed in individual stainless steel cages (40×50×34 cm) with a grid floor. Then, the animals are challenged with apomorphine (0.25 mg/kg s.c.), morphine (0.4 mg/kg i.p.) or cisplatin (10 mg/kg i.p.) and immediately observed over at least a 2-hour period. Parameters recorded include: number of ferrets showing retches and vomits; latency to first retching; latency to first vomiting; number of retches; vomiting (number of vomits); number of emesis periods and mean duration of emesis periods. Retching is defined as a rhythmic respiratory movement against a closed glottis, while vomiting is defined as a forced expulsion of upper gastrointestinal contents.
Where morphine is used as the emetogen, amisulpride (n=6 per group) or vehicle (n=6) is administered intravenously 5 minutes before the administration of morphine. The observation period is 2 hours after administration of the morphine.

[5] = system: ferrets; test: Apomorphine-induced emesis in ferrets; assay type: in vivo, ferret
Experimental: as §1, §2
Where apomorphine is used as the emetogen, amisulpride (or vehicle) was administered subcutaneously (s.c. 30 minutes before administration of apomorphine). Animals (6 per group) were treated with vehicle or amisulpride at 1, 10, or 100 μg/kg given sub-cutaneously. The observation period was 2 hours after apomorphine administration.

[6] = system: ferrets; test: Cisplatin-induced emesis in ferrets; assay type: in vivo, ferret
Experimental: as §1, §2
Where cisplatin is used as the emetogen, amisulpride (n=6 per group) or vehicle (n=6) is administered intravenously at least 5 minutes before the administration of cisplatin. The observation period is up to 72 hours, which allows effects on early and late phase emesis to be observed.
More specifically, data are reported from an experiment in which the observation period was 3 hours following cisplatin challenge. Cisplatin induced the occurrence of retches and vomits in 7 and 5 of 9 animals tested respectively. The mean incidences were 79.8±22.2 retches, 3.0±1.1 vomits and 10.7±2.8 emetic periods. Retches and vomits occurred after 85 minutes 6 seconds±7 minutes 53 seconds and 86 minutes 39 seconds±10 minutes 28 seconds respectively amisulpride was given at 0.2, 0.6, 2 and 6 mg/kg. At 0.2 mg/kg the incidence of retches was 23.3±10.8 (a 71% decrease in mean value), of vomits 0.2±0.2 (a 93% decrease) and emesis periods 3.7±2.0 (a 65% decrease). At 0.6 mg/kg the incidence of retches was 62.5±59.0, vomits 1.3±1.1 and emesis periods 3.7±1.3. […] At 2.0 mg/kg the incidence of retches was 3.3±2.5, vomits 0.2±0.2 and emesis periods 0.5±0.3. […] At 6 mg/kg the incidences were 11.7±3.8 retches, 1.2±1.0 vomits and 3.7±1.3 emesis periods.
As indicated above, droperidol is a known agent for the treatment of PONV.

[7] = amisulpride 3 mg/kg i.v. before morphine, 2 hour observation
[8] = amisulpride 6 mg/kg i.v. before morphine
[9] = amisulpride 6 mg/kg i.v. before morphine, 2 hour observation
[10] = amisulpride 12 mg/kg i.v. before morphine, 2 hour observation
[11] = amisulpride 1 μg/kg s.c. 30 minutes before apomorphine 0.25 mg/kg s.c., 2 hour observation
[12] = amisulpride 0.2 mg/kg, 3 hours observation
[13] = amisulpride 0.6 mg/kg, 3 hours observation
[14] = amisulpride 2.0 mg/kg, 3 hours observation
[15] = amisulpride 6 mg/kg, 3 hours observation

In the case of `CCN1CCCC1CNC(=O)c1cc(S(=O)(=O)CC)c(N)cc1OC` (centres unmarked) [Amisulpride], the “effect on QT interval” value [1] is given as “induces a dose dependent prolongation of the QT interval”, the “effect on apomorphine-induced vomiting” value [2] is given as “inhibit apomorphine-induced vomiting in the dog” and the “effect on nausea, vomiting and retching associated with PONV” value [3] is given as “demonstrate the effect of amisulpride against the nausea as well as the vomiting and retching associated with PONV”. The number of retches ([4]; amisulpride 3 mg/kg i.v. 5 minutes before morphine 0.4 mg/kg i.p., 2 hour observation) was 28.7±7.1, the incidence of vomits [4, 7] was “abolished the incidence of vomits” and the “number of emesis periods” value [4, 7] was 5.2±1.4. For the same molecule, the “decrease in emesis periods vs control” value [4, 8] was 56%, the “decrease in retches vs control” value [4, 8] was about 50% and the “decrease in vomits vs control” value [4, 8] was 72%. The “number of emesis periods” value [4, 9] was 3.3±1.1, the number of retches [4, 9] was 17.8±6.8 and the number of vomits [4, 9] was 0.5±0.3. For the same molecule, the “number of emesis periods” value [4, 10] was 5.7±1.5, the number of retches [4, 10] was 31.7±11.2 and the number of vomits [4, 10] was 0.8±0.4. The “effect on emetic effects induced by morphine vs vehicle control” value ([4]; i.v., 2 hour observation) was “reduces the emetic effects induced by morphine, in dose-dependent manner”, the “number of emesis periods” value [5, 11] was 1.5±0.6 and the number of retches [5, 11] was 6.0±2.2. The number of vomits [5, 11] was 0±0, the “inhibition of apomorphine emesis” value ([5]; amisulpride 10 μg/kg s.c.) was “totally inhibited” and the “inhibition of apomorphine emesis” value ([5]; amisulpride 100 μg/kg s.c.) was “totally inhibited”. For the same molecule, the incidence of retches ([6]; amisulpride 0.2 mg/kg i.v. before cisplatin 10 mg/kg i.p., 3 hours observation) was 23.3±10.8, the “decrease in emesis periods vs control” value [6, 12] was 65% and the “decrease in mean retches vs control” value [6, 12] was 71%. For the same molecule, the “decrease in vomits vs control” value [6, 12] was 93%, the emesis periods [6, 12] was 3.7±2.0 and the incidence of vomits [6, 12] was 0.2±0.2. The “efficacy compared with droperidol” value ([6]; amisulpride 0.6 mg/kg (one animal excluded) and 2 mg/kg vs droperidol 3 mg/kg given 5 minutes before cisplatin) was “better than droperidol at 3 mg/kg; also recorded: more effective than droperidol at 3 mg/kg”, the emesis periods [6, 13] was 3.7±1.3 and the incidence of vomits [6, 13] was 1.3±1.1. For the same molecule, the incidence of retches ([6]; amisulpride 0.6 mg/kg, 3 hours observation, one animal had an early, exaggerated response) was 62.5±59.0, the emesis periods [6, 14] was 0.5±0.3 and the incidence of retches [6, 14] was 3.3±2.5. It also gave an incidence of vomits [6, 14] of 0.2±0.2, an emesis periods [6, 15] of 3.7±1.3 and an incidence of retches [6, 15] of 11.7±3.8. For the same molecule, the incidence of vomits [6, 15] was 1.2±1.0 and the “effect on emetic effects of cisplatin vs vehicle control” value ([6]; i.v., 72 hour period, early and late stages) was “reduces the emetic effects of cisplatin, in dose-dependent manner”.
